Assays:
human-derived GPR40 = target: T1, human-derived GPR40 (Homo sapiens, UniProt O14842); test: Intracellular calcium change (FLIPR) in CHO-K1 cells transiently expressing GPR40; assay type: cell-based; conditions: added in 10^−5 M to 10^−6 M; no response in vector-only control cells
T1 construct: The DNA fragment encoding human GPR40 was acquired by the following PCR procedures; expressed in transfected cells; host or cells: CHO-K1 (transient, Lipofectamine)
Description: The CHO-K1 cell line was cultured in HAM F-12 medium (Invitrogen) containing 10% fetal calf serum (Invitrogen), unless otherwise indicated. One day before transfection, 4.5×10^5 cells per 10 cm^2 were plated, followed by incubation in a CO2 incubator adjusted to a concentration of 5% CO2 at 37° C. for at least 15 hours. Using Lipofectamine reagent (Invitrogen), transfection procedures were carried out by modifications of the method attached to the reagent. When a 6-well plate was used for the incubator, the following procedures were performed. First, 2 tubes each having a 1.5 ml volume were prepared and 100 μl each of Opti-MEM-I medium (Invitrogen) was dispensed in each tube. Next, 1 μg of the expression vector was charged in one tube and in another tube, 6 μl of Lipofectamine reagent was charged, which were mixed together. The mixture was settled for 20 minutes at room temperature. To the solution, 800 μl of Opti-MEM-I medium was added and the resulting solution mixture for transfection was added to CHO-K1 cells, which had been previously washed with Opti-MEM-I medium. Then, the cells were incubated in a CO2 incubator for 6 hours. After the incubation, the cells were rinsed with PBS (Invitrogen), then scraped using 0.05% trypsin-EDTA solution (Invitrogen) and recovered by centrifugal operation. The cells obtained were counted and diluted to 5×10^4 cells per 200 μl of the medium. The dilution was dispensed onto a Black walled 96-well plate (Costar) in 200 μl each per well, followed by incubation overnight in a CO2 incubator. Various test samples were added to the CHO-K1 cells in which the receptor was transiently expressed by the transfection operation described above, whereby changes in the intracellular calcium ion level were determined using FLIPR (Molecular Device). In order to determine the changes in the intracellular calcium ion level on FLIPR, the cells were pre-treated by the following procedures. First, for the purpose of adding a fluorescent dye Fluo-3 AM (DOJIN) to the cells or washing the cells immediately before the FLIPR assay, an assay buffer was prepared. A solution obtained by adding 20 ml of 1M HEPES (pH 7.4) (DOJIN) to 1000 ml of HBSS (Invitrogen) was prepared (hereinafter HBSS/HEPES solution), to which 10 ml of a solution mixture obtained by dissolving 710 mg of Probenecid (Sigma) in 5 ml of 1N NaOH and further adding 5 ml of HBSS/HEPES solution was added. The resulting solution was used as the assay buffer. Next, 50 μg of Fluo-3AM was dissolved in 21 μl of DMSO (DOJIN) and an equal volume of 20% Pulronic acid (Molecular Probes) was added to and mixed with the solution. The mixture was then added to 10.6 ml of the assay buffer supplemented with 105 μl of fetal calf serum to prepare a fluorescent dye solution. The medium for the transfection-treated CHO-K1 cells was removed. Immediately thereafter, the fluorescent dye solution was dispensed in 100 μl each/well and the cells were incubated in a CO2 incubator for an hour so that the fluorescent dye was taken up into the cells. The cells after the incubation was washed with the assay buffer described above and set on FLIPR. A test sample added to the receptor-expressed CHO-K1 cells was prepared using the assay buffer and set on FLIPR at the same time. After various test samples were added thereto.
Following the pre-treatment above, changes in intracellular calcium level after addition of various test samples were measured on FLIPR.

[1] = system: mouse insulinoma MIN6 cells; test: Insulin secretion from MIN6 cells with free fatty acid-BSA mixture (RIA); assay type: cell-based; conditions: 300 μM to 1000 μM; fatty acid-BSA 4:1; 11 mM glucose; 90 (or 60) minutes
Description: The MIN6 cells were cultured in DMEM (high glucose, Invitrogen) containing 15% FCS (Trace Scientific Ltd.), 55 μM 2-mercaptoethanol, 100 U/ml penicillin and 100 μg/ml streptomycin, unless otherwise indicated. MIN6 cells were plated in a 96-well plate in 10^5 cells/well, followed by incubation at 37° C. for 3 days in a CO2 incubator adjusted to a concentration of 5% CO2. The medium was replaced by RPMI1640 (glucose free, Invitrogen) containing 10% FCS (Trace Scientific Ltd.), 5.5 mM glucose, 100 U/ml penicillin and 100 μg/ml streptomycin, followed by incubation for further 24 hours. After the medium was removed by suction, a solution mixture of free fatty acid-bovine serum albumin (BSA) (in a molar ratio of 4:1) diluted with RPMI1640 (glucose free, Invitrogen) containing 10% FCS (Trace Scientific Ltd.), 11 mM glucose, 100 U/ml penicillin and 100 μg/ml streptomycin was added to the cells, followed by reacting in a CO2 incubator adjusted to a 5% CO2 concentration at 37° C. for 90 minutes (or 60 minutes). After the reaction, the 96-well plate was centrifuged at 1500 rpm for 5 minutes and the culture supernatant was then recovered. The amount of insulin secreted into the culture supernatant was determined by radioimmunoassay (RIA) using the rat insulin RIA system (Amersham Pharmacia).

T1 sequence (O14842 whole entry, the tested form may be a part): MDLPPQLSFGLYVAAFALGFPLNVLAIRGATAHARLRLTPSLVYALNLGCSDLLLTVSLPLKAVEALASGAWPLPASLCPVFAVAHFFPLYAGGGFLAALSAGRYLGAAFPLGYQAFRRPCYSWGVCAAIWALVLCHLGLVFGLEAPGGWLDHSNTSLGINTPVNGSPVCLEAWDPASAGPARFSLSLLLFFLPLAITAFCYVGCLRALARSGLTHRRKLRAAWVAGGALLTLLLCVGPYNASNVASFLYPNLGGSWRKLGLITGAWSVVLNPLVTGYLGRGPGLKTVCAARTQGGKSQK

SMILES	response (increase in intracellular calcium level) of GPR40-expressing CHO-K1 cells (human-derived GPR40)	insulin secretion by MIN6 cells [1]
CCCCC/C=C\C/C=C\C/C=C\C/C=C\CCCC(=O)O [Arachidonic acid (C20:4), Arachidonic acid]	specifically responsive	
CCCCC/C=C\C/C=C\CCCCCCCC(=O)O [Linoleic acid (C18:2), Linoleic acid]	specifically responsive	
CCCCC/C=C\C/C=C\C/C=C\CCCCC(=O)O [γ-Linolenic acid (C18:3), γ-Linolenic acid]		promoted
CC/C=C\C/C=C\C/C=C\C/C=C\C/C=C\C/C=C\CCC(=O)O [Docosahexaenoic acid (C22:6), 4Z,7Z,10Z,13Z,16Z,19Z-docosahexaenoic acid]	specifically responsive	
CCCCCCCC/C=C\CCCCCCCC(=O)O [Oleic acid (C18:1), Oleic acid]	specifically responsive	promoted
